Reference: patent US10501449B2 (priority 2018, dated 2019)

These compounds were tested against hROMK (human Kir1.1) (Homo sapiens (Human), UniProt P48048) (assay: cell-based). Settings: CHO T-Rex hROMK stable cell line; thallium flux; 10-point concentration response curve; read-out: Human ROMK Th Flux IC50.
hROMK (human Kir1.1), sequence (P48048 whole entry): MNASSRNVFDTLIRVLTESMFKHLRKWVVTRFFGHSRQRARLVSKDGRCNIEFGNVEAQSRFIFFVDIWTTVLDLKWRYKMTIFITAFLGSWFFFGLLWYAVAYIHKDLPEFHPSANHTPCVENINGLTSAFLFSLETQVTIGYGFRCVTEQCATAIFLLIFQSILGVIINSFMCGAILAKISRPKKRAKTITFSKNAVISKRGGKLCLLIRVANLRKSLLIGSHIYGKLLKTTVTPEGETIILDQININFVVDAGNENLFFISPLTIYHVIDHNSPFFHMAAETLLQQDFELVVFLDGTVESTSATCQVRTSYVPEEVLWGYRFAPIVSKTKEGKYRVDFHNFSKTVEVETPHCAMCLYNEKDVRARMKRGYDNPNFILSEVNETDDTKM
Experimental: Solutions and reagents: Thallium flux assay was performed using FluxOR kit (F10017, Life Technologies). Loading buffer, assay buffer and stimulus buffer were prepared using kit components. HBSS (Hank's balanced salt solution, Cat#14025-092) was purchased separately from Life Technologies.
To prepare 10 ml of loading buffer: 10 μl of FluxOR dye (reconstituted in DMSO) was first added to 100 μl of powerload concentrate and this mix along with 100 μl of Probenicid (100×) was then added to 9.79 ml of HBSS. Assay buffer (10 ml) was prepared by addition of 2 ml of FluxOR chloride free buffer (5×), 100 μl of Probenicid (100×), and 0.2 ml of Ouabain (13.77 mM) to 7.7 ml of deionized water. Stimulus buffer was composed of 15 mM Tl2SO4, 0.75 mM K2SO4 in FluxOR chloride free buffer (diluted to 1× using deionized water). The final concentration of Tl2SO4 and K2SO4 in the assay plate was 3 mM and 0.15 mM, respectively.
Plating and induction of cells: The CHO T-Rex hROMK (human Kir1.1) stable cell line was maintained in Ham's F12 media supplemented with 10% FBS, 1% Penicillin-Streptomycin, 500 μg/ml Zeocin and 10 μg/ml Blasticidin at 37° C. in a 5% CO2 incubator. One day before the experiment, the cells were dissociated by incubation with Versene solution (15040-066, Life Technologies) for 10 minutes at 37° C. followed by addition of growth media. The cell suspension was centrifuged at 1200 rpm for 5 min. After discarding the supernatant, the cells were resuspended in fresh growth media and cell concentration was determined using a hemocytometer. Next, 0.5 μg/ml of Doxycycline was added to the cell suspension to induce hROMK channel expression and 50 μl (10,000 cells/well) of cell suspension was added to each well of a poly-D lysine coated 384 well black, optically clear bottom plate (6007718, Perkin Elmer). The assay plate was kept at 37° C. in a 5% CO2 incubator.
Assay protocol: On the day of experiment, media was removed and loading buffer was added (30 μl/well) to the assay plate. The cells were incubated in the loading buffer for 30 minutes at 37° C. The loading buffer was then replaced by assay buffer (30 μl/well) followed by addition of test compounds or controls. The cells were incubated with compounds for 30 minutes and the plate was then mounted on FlexStation (Molecular Devices) for fluorescence read out with excitation and emission wavelengths at 488 and 525 nm, respectively. Each well was read for 90 sec at 2 sec interval and the stimulus buffer was added after 20 seconds of baseline recording. The final DMSO concentration was either 0.5 or 1% in the assay plate. Positive and negative controls were defined by addition of DMSO or 3 μM of a standard ROMK inhibitor, respectively, to the wells instead of a test compound.
A 10-point concentration response curve was used to estimate the IC50 value of test compounds.
For `Cc1c([C@@H]2CN(Cc3cnn(-c4cncc(C#N)c4)c3)CCO2)ccc2c1COC2=O` [Example 42-I, (R)-5-(4-((2-(4-methyl-1-oxo-1,3-dihydroiso-benzofuran-5-yl)morpholino)methyl)-1H-pyrazol-1-yl)nicotinonitrile], the IC50 was 490 nM. `Cc1ncc(-n2cc(CN3CCO[C@H](c4ccc5c(c4C)COC5=O)C3)cn2)s1` [Example 7-I, (R)-4-methyl-5-(4-((1-(2-methylthiazol-5-yl)-1H-pyrazol-4-yl)methyl)morpholin-2-yl) isobenzofuran-1(3H)-one] was tested, and the IC50 was 1000 nM. In the case of `Cc1c([C@@H]2CN(Cc3cnn(-c4cccc(C#N)c4)c3)CCO2)ccc2c1COC2=O` [Example 43-I, (R)-3-(4-((2-(4-methyl-1-oxo-1,3-dihydroiso-benzofuran-5-yl)morpho-lino)methyl)-1H-pyrazol-1-yl)benzonitrile], the IC50 is reported as 110 nM. Work on `Cc1cc(-n2cc(CN3C[C@@H](c4ccc5c(c4C)COC5=O)N[C@@H](C)C3)oc2=O)ncc1C#N` [Example 117-I, 4-methyl-6-(5-(((3S,5R)-3-methyl-5-(4-methyl-1-oxo-1,3-dihydroisobenzofuran-5-yl)piperazin-1-yl)methyl)-2-oxooxazol-3(2H)-yl)nicotinonitrile] yielded an IC50 of 34 nM. For `Cc1c([C@@H]2CN(Cc3cnn(-c4ccn(C(F)F)c(=O)c4)n3)C[C@H](C)N2)ccc2c1COC2=O` [Example 270-I, 1-(difluoromethyl)-4-(4-(((3S,5R)-3-methyl-5-(4-methyl-1-oxo-1,3-dihydroisobenzofuran-5-yl)piperazin-1-yl)methyl)-2H-1,2,3-triazol-2-yl)pyridin-2(1H)-one], the IC50 was 580 nM. For `COc1cc(-c2ccc(CN3CC(=O)N[C@H](c4ccc5c(c4C)COC5=O)C3)cn2)ncc1C#N` [Example 74-I, (R)-4-methoxy-5′-((3-(4-methyl-1-oxo-1,3-di-hydroisobenzofuran-5-yl)-5-oxopiperazin-1-yl)methyl)-[2,2′-bi-pyridine]-5-carbonitrile], the IC50 was 570 nM. `Cc1cc(-n2cc(CCN3CCO[C@H](c4ccc5c(c4C)COC5=O)C3)cn2)ncc1C#N` [Example 31-I, (R)-4-methyl-6-(4-(2-(2-(4-methyl-1-oxo-1,3-dihydroisobenzofuran-5-yl)morpholino)ethyl)-1H-pyrazol-1-yl) nicotinonitrile] gave an IC50 of 190 nM. Compound `Cc1ncc(-n2cc(CN3C[C@@H](c4ccc5c(c4C)COC5=O)N[C@@H](C)C3)cn2)cn1` [Example 209-I, 4-methyl-5-((2R,6S)-6-methyl-4-((1-(2-methylpyrimidin-5-yl)-1H-pyrazol-4-yl)methyl)piperazin-2-yl)isobenzofuran-1(3H)-one] has an IC50 of 100 nM. Compound `Cc1c([C@@H]2CN(Cc3cn(-c4ccc5c(c4)OC(F)(F)O5)cn3)C[C@H](C)N2)ccc2c1COC2=O` [Example 182-I, 5-((2R,6S)-4-((1-(2,2-difluorobenzo[d][1,3]dioxol-5-yl)-1H-imidazol-4-yl)methyl)-6-methylpiperazin-2-yl)-4-methylisobenzofuran-1(3H)-one] has an IC50 of 260 nM. With `Cc1cc(-n2cc(CN3CC(c4ccc5c(c4C)COC5=O)NC(C(C)(C)O)C3)cn2)ncc1C#N` (single isomer, unassigned) [Example 213-I, 6-(4-((3-(2-hydroxypropan-2-yl)-5-(4-methyl-1-oxo-1,3-dihydroisobenzofuran-5-yl)piperazin-1-yl)methyl)-1H-pyrazol-1-yl)-4-methynicotinonitrile] the IC50 was 1200 nM. Compound `CNC(=O)c1nn(-c2cc(OC)c(C#N)cn2)cc1CN1CCN[C@H](c2ccc3c(c2C)COC3=O)C1` [Example 260-I, (R)-1-(5-cyano-4-methoxypyridin-2-yl)-N-methyl-4-((3-(4-methyl-1-oxo-1,3-dihydroisobenzofuran-5-yl)piperazin-1-yl)methyl)-1H-pyraozl-3-carboxamide] has an IC50 of 430 nM. `Cc1cc(N2CC(CN3CCN[C@H](c4ccc5c(c4C)COC5=O)C3)OC2=O)ncc1C#N` (single isomer, unassigned) [Example 160-I] gave an IC50 of 130 nM. For `Cc1cc(-n2cc(CN3C[C@@H](c4ccc5c(c4C)COC5=O)NS3(=O)=O)cn2)ncc1C#N` [Example 119-I, (R)-4-methyl-6-(4-((4-(4-methyl-1-oxo-1,3-dihydroisobenzofuran-5-yl)-1,1-dioxido-1,2,5-thiadiazolidin-2-yl)methyl)-1H-pyrazol-1-yl)nicotinonitrile], the IC50 was 140 nM. `Cc1c([C@@H]2CN(Cc3ccc(-n4cc(C(N)=O)cn4)nc3)CCN2)ccc2c1COC2=O` [Example 138-I, (R)-1-(5-((3-(4-methyl-1-oxo-1,3-dihydroisobenzofuran-5-yl)piperazin-1-yl)methyl)pyridin-2-yl)-1H-pyrazole-4-carboxamide] was tested, and the IC50 was 670 nM. Compound `Cc1c([C@@H]2CN(Cc3nnc(-c4ccc(C#N)cn4)o3)CCN2)ccc2c1COC2=O` [Example 62-I, (R)-6-(5-((3-(4-methyl-1-oxo-1,3-dihydroiso-benzofuran-5-yl)piper-azin-1-yl)methyl)-1,3,4-oxadiazol-2-yl) nicotinonitrile] has an IC50 of 170 nM. For `Cc1ncn(-c2ccc(CN3CC(=O)N[C@H](c4ccc5c(c4C)COC5=O)C3)cn2)n1` [Example 75-I, (R)-6-(4-methyl-1-oxo-1,3-dihydroisobenzo-furan-5-yl)-4-((6-(3-methyl-1H-1,2,4-triazol-1-yl)pyridin-3-yl)methyl) piperazin-2-one], the IC50 was 680 nM. For `Cc1cc(-c2nc(CN3CC[C@@H](O)[C@H](c4ccc5c(c4C)COC5=O)C3)co2)ncc1C#N` [Example 132-I, 6-(4-(((3R,4R)-4-hydroxy-3-(4-methyl-1-oxo-1,3-dihydroisobenzofuran-5-yl)piperidin-1-y)methyl)oxazol-2-yl)-4-methylnicotinonitrile], the IC50 was 170 nM. `Cc1cn(-c2ncc(CN3CCO[C@H](c4ccc5c(c4C)COC5=O)C3)s2)cn1` [Example 36-I, (R)-4-methyl-5-(4-((2-(4-methyl-1H-imidazol-1-yl)thiazol-5-yl)methyl)morpholin-2-yl)iso-benzofuran-1(3H)-one] showed an IC50 of 680 nM. For `Cc1c([C@@H]2CN(Cc3ccc(-c4ccc(=O)n(C)n4)nc3)C[C@H](C)N2)ccc2c1COC2=O` [Example 120-I, 2-methyl-6-(5-(((3S,5R)-3-methyl-5-(4-methyl-1-oxo-1,3-dihydroisobenzofuran-5-yl)piperazin-1-yl)methyl)pyridin-2-yl)pyridazin-3(2H)-one], the IC50 was 160 nM. `Cc1cnc(-n2cc(CN3C[C@@H](c4ccc5c(c4C)COC5=O)N[C@@H](C)C3)cn2)cn1` [Example 206-I, 4-methyl-5-((2R,6S)-6-methyl-4-((1-(5-methylpyrazin-2-yl)-1H-pyrazol-4-yl)methyl)piperazin-2-yl)isobenzofuran-1(3H)-one] was tested, and the IC50 was 82 nM. `Cc1cc(-c2nnc(CN3CCN[C@H](c4ccc5c(c4C)COC5=O)C3)o2)ncc1C#N` [Example 13-I, (R)-4-methyl-6-(5-((3-(4-methyl-1-oxo-1,3-dihydroisobenzofuran-5-yl)piperazin-1-yl)methyl)-1,3,4-oxadiazol-2-yl)nicotinonitrile] showed an IC50 of 110 nM. In the case of `Cc1c([C@@H]2CN(Cc3cn(-c4ccnc(C(F)F)n4)cn3)C[C@H](C)N2)ccc2c1COC2=O` [Example 271-I, 5-((2R,6S)-4-((1-(2-(difluoromethyl)pyrimidin-4-yl)-1H-imidazol-4-yl)methyl)-6-methylpiperazin-2-yl)-4-methylisobenzofuran-1(3H)-one], the IC50 is reported as 100 nM. For `Cc1cn(-c2cc(C(F)(F)F)c(CN3CCN[C@H](c4ccc5c(c4C)COC5=O)C3)cn2)cn1` [Example 147-I, (R)-4-methyl-5-(4-((6-(4-methyl-1H-imidazol-1-yl)-4-(trifluoromethyl)pyridin-3-yl)methyl)piperazin-2-yl)isobenzofurna-1(3H)-one], the IC50 was 87 nM. For `Cc1c([C@@H]2CN(C(=O)c3cnc(-c4ccc5oc(=O)n(C)c5c4)s3)CCO2)ccc2c1COC2=O` [Example 20-I, (R)-3-methyl-5-(5-(2-(4-methyl-1-oxo-1,3-dihydroisobenzofuran-5-yl)morpholine-4-carbonyl)thiazol-2-yl)benzo[d]oxazol-2(3H)-one], the IC50 was 490 nM. In the case of `Cc1c([C@@H]2CN(Cc3cnn(-c4ccc5oc(=O)n(C)c5c4)c3)C(=O)O2)ccc2c1COC2=O` [Example 80-I, (R)-3-methyl-5-(4-((5-(4-methyl-1-oxo-1,3-dihydroisobenzofuran-5-yl)-2-oxooxazolidin-3-yl)methyl)-1H-pyrazol-1-yl)benzo[d]oxazol-2(3H)-one], the IC50 is reported as 490 nM. `Cc1cc(-n2cc(CN3CC(F)C(c4ccc5c(c4C)COC5=O)C3)cn2)ncc1C#N` (single isomer, unassigned) [Example 212-II, 6-(4-((3-fluoro-4-(4-methyl-1-oxo-1,3-dihydroisobenzofuran-5-yl)pyrrolidin-1-yl)methyl)-1H-pyrazol-1-yl)-4-methylnicotinonitrile] showed an IC50 of 97 nM. `Cc1c(C2CN(Cc3cnn(-c4ccc5oc(=O)n(C)c5c4)c3)CCC2(F)F)ccc2c1COC2=O` (stereo not drawn) [Example 4, 5-(4-((4,4-difluoro-3-(4-methyl-1-oxo-1,3-dihydroisobenzofuran-5-yl)piperidin-1-yl)methyl)-1H-pyrazol-1-yl)-3-methylbenzo[d]oxazol-2(3H)-one] gave an IC50 of 640 nM. Work on `COc1c(CN2C[C@@H](c3ccc4c(c3C)COC4=O)OC2=O)cnn1-c1cc(C)c(C#N)cn1` [Example 79-I, (R)-6-(5-methoxy-4-((5-(4-methyl-1-oxo-1,3-dihydroisobenzofuran-5-yl)-2-oxooxazolidin-3-yl)methyl)-1H-pyrazol-1-yl)-4-methyl-nicotinonitrile] yielded an IC50 of 320 nM. With `Cc1cc(-n2cc(CN3CC(=O)N(C)[C@H](c4ccc5c(c4C)COC5=O)C3)cn2)ncc1C#N` [Example 77-I, (R)-4-methyl-6-(4-((4-methyl-3-(4-methyl-1-oxo-1,3-dihydroisobenzo-furan-5-yl)-5-oxo-piperazin-1-yl)methyl)-1H-pyrazol-1-yl)nicotino-nitrile] the IC50 was 820 nM. For `Cc1c([C@@H]2CN(Cc3cnn(-c4ccc5oc(=O)n(C)c5c4)c3)CC(=O)N2)ccc2c1COC2=O` [Example 71-I, (R)-3-methyl-5-(4-((3-(4-methyl-1-oxo-1,3-dihydroisobenzofuran-5-yl)-5-oxopiperazin-1-yl)methyl)-1H-pyrazol-1-yl)benzo[d]oxazol-2(3H)-one], the IC50 was 800 nM.
